pIC50: −log10 of the molar value.
Assays:
[1] = target: T1, CYP3A4 (Homo sapiens (Human), UniProt P08684); test: Reversible CYP inhibition in human liver microsomes (midazolam probe); type: in vitro ADME; conditions: human liver microsomes 0.1 mg/mL, 2.5 μM midazolam, 5 min, test compound up to 30 μM
Experimental: A seven-point semi-log dilution of each test compound (up to […]) or positive control inhibitors for CYP2C9 (up to 1000 nM sulphenazole), CYP2D6 (up to 500 nM quinidine) and CYP3A4 (up to 250 nM ketoconazole) were dissolved in DMSO and added to the incubation plate using a Tecan 300 (normalized for 0.3% DMSO content). Final reaction conditions were: human liver microsomes (0.1 mg/mL), potassium phosphate buffer 100 mM pH 7.4, 1 mM magnesium chloride, 5 NM diclofenac, 5 NM dextromethorphan and 2.5 μM midazolam. After a pre-incubation at 37 00. The reaction was started with the addition of NADPH solution at the final concentration of 1 mM and carried out at 37 00 for 5 minutes. The reaction was stopped by the addition of 1 volume of cold acetonitrile with internal standard (labetalol) to the incubation plate. The incubation plate was centrifuged at 3000 rpm for 10 minutes to precipitate proteins, and the supernatant was analyzed by LC-MS/MS. Metabolite area ratio (4-OH-diclofenac, dextrorphan and 1-OH-midazolam) versus ISTD area ratio was used as the quantitative signal. Data were analyzed using the plot log of concentration (×-axis) versus the percentage of inhibition (y axis) and the IC50, Hill Slope and R^2 were determined.

[2] = Liver microsomal stability assay; type: in vitro ADME; conditions: pH 7.4; human liver microsomes 0.5 mg/mL, 1 μM compound, NADPH 1 mM, 37 °C
Experimental: Liver microsomes were thawed on ice prior to use. The incubation mixtures were prepared in 96-well plates and contained test compound or control (1 μM), liver microsomes (0.5 mg of microsomal protein/mL), MgCl2 (5 mM), phosphate buffer (100 mM, pH 7.4), 0.01% DMSO and 1% acetonitrile. A T=0 aliquot was withdrawn after 10 min pre-incubation at 37° C. on a shaker. Reactions were initiated by the addition of NADPH (final concentration of 1 mM) and the plate was kept on a shaker at 37° C., further samples were withdrawn at 5, 15, 30, and 60 minutes. At each timepoint, the reactions were immediately terminated by adding of ice-cold acetonitrile containing internal standard to the withdrawn sample. The extracted samples were centrifuged for 10 minutes at 3200 rpm to pellet the precipitated microsomal protein, and the supernatant was combined 1:1 with water and analyzed by LC-MS/MS. Using the T=0 peak area ratio as 100%, the percentage of parent compound remaining was calculated. For each compound, the In percentage remaining versus incubation time was plotted and the slope of this linear regression (−k) was converted to an in vitro T1/2 value and CLint using the equations below.

[3] = target: T1, CYP3A4; test: TDI method: time-dependent CYP inhibition, IC50 shift -NADPH/+NADPH; type: in vitro ADME; conditions: IC50 (-NADPH) divided by IC50 (+NADPH), 30 min pre-incubation, human liver microsomes
Experimental: Test compound or positive control inhibitors (CYP2C9: Tienilic acid; CYP2D6: paroxetine; CYP3A4: mifepristone) were dissolved in DMSO and a semi-log dilution (up to 50.0 μM) was prepared to 2 incubation plates and normalized for a final DMSO content of 0.5%. Human liver microsomes were diluted at 1 mg/mL with 100 mM potassium phosphate buffer pH 7.4 (1 mM MgCl2) and added to both incubation plates. After pre-incubation at 37° C., the reaction was started with the addition of NADPH (+NADPH condition) or with water (-NADPH condition). Plates were incubated for 30 min and 8 μL were transferred to a second incubation plate containing 72 μL of 1 mM NADPH, 20 μM diclofenac (CYP2C9), 20 μM dextromethorphan (CYP2D6) and 10 μM midazolam (CYP3A4) in 100 mM potassium phosphate buffer pH 7.4 (1 mM MgCl2). Plates were incubated for 10 min and the reaction was stopped by the addition of cold acetonitrile containing internal standard (1:1 v/v). Incubation plates were centrifuged at 3000 rpm for 10 minutes to precipitate protein, and the supernatant was used for LC-MS/MS analysis. Metabolite area ratio (4-OH-diclofenac, dextrorphan and 1-OH-midazolam) versus internal standard area ratio was used as the quantitative signal. Data were analyzed using the plot log of concentration (x axis) versus the percentage of inhibition (y axis) and IC50, Hill Slope and R^2 were determined. The IC50 shift was then calculated by dividing the IC50-NADPH condition by the IC50 obtained in the +NADPH condition.

[4] = target: PXR nuclear receptor (Homo sapiens (Human), UniProt O75469); test: PXR method: luciferase reporter gene activation in transfected tumor cells; type: cell-based; conditions: test compound 0.03-10 μM; for fold induction at 24 h: compared with vehicle-treated cells, read-out: PXR activation (Max fold induction); for PXR activation (% Max activity): percentage of the response given by Rifampicin at 10 μM, 24 h
Experimental: An expression vector harboring a full-length PXR nuclear receptor plus the appropriate enhancers and promoters linked to the luciferase reporter gene were integrated into the tumor cells. Tumor cells transfected with the species-specific nuclear receptor and the corresponding response elements were seeded in a 96-well plate. Twenty-four hours after seeding, the cells were treated with six distinct concentrations (0.03-10 μM) of the test compound. The cells were then returned to the incubator for an additional 24 h. After this incubation period, the number of viable cells/well were determined using Promega's Cell Titer Fluor cytotoxicity assay. At the end of the assay, Promega's ONE-Glo was added to assess the receptor activation by monitoring reporter gene activity, and by comparing the results to vehicle-treated cells. Activation data were normalized to the number of viable cells/well. Results are expressed as a percentage of the response given by Rifampicin, the positive control, at a 10 μM dose.

[5] = target: Polθ ATPase enzyme (1-894) (Homo sapiens (Human), UniProt O75417); test: Polθ ATPase enzymatic assay (3 nM enzyme concentration), ADP-Glo; type: biochemical; conditions: read-out: IC50 (nM) [PolQ] 3 nM; average IC50; 3 nM PolQ ATPase enzyme (1-894)
Experimental: Polθ ATPase enzyme (1-894) at 3 nM is incubated with a 10-point concentration response of inhibitors for 15 min at rt in the following buffer: 50 mM Tris Cl pH 7.5, 10% glycerol, 5 mM DTT, 10 mM MgCl2, 0.1 mg/ml BSA. Following pre-incubation with inhibitors, DNA (Fork C) at 20 nM and ATP at 100 μM are added to start the reaction. Enzymatic reaction proceeds at rt for 60 min. ATP consumption is measured using the ADP-Glo assay from Promega. Luminescence is read on the Envision and IC50 are determined using the variable slope 4-parameters equation.
DNA (Fork C) is made by annealing 3 different oligos containing the following sequence of nucleotides:
Oligos are annealed by heating at 95° C. for 5 min in the following buffer (10 mM Tris-HCl pH7.5, 50 mM NaCl, 1 mM EDTA) and cooled to rt. […]

[6] = target: PolQ ATPase enzyme (1-894) (Homo sapiens (Human), UniProt O75417); test: Polθ ATPase enzymatic assay (0.5 nM enzyme concentration), ADP-Glo; type: biochemical; conditions: average IC50; 0.5 nM PolQ ATPase enzyme (1-894)
Method in brief: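 Enzyme (0.5 nM) pre-incubated 15 min at rt with 10-point inhibitor series in 50 mM Tris pH 7.5, 10% glycerol, 5 mM DTT, 10 mM MgCl2, 0.1 mg/ml BSA; reaction started with 20 nM fork DNA and 100 μM ATP, run 180 min at rt. ADP-Glo luminescence; IC50 from 4-parameter variable-slope fit.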

PXR nuclear receptor, sequence (O75469 whole entry): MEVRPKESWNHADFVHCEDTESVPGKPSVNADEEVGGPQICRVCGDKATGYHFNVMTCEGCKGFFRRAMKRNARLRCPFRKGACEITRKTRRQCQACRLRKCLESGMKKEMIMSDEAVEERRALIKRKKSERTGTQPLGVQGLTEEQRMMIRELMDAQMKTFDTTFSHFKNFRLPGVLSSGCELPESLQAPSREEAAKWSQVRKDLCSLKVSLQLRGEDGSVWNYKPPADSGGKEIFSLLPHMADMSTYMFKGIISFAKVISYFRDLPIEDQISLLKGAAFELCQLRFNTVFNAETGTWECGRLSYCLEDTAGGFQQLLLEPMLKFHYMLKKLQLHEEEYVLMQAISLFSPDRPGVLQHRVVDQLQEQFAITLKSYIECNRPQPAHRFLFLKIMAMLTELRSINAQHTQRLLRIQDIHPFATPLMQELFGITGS
Polθ ATPase enzyme (1-894), sequence (O75417 1-894): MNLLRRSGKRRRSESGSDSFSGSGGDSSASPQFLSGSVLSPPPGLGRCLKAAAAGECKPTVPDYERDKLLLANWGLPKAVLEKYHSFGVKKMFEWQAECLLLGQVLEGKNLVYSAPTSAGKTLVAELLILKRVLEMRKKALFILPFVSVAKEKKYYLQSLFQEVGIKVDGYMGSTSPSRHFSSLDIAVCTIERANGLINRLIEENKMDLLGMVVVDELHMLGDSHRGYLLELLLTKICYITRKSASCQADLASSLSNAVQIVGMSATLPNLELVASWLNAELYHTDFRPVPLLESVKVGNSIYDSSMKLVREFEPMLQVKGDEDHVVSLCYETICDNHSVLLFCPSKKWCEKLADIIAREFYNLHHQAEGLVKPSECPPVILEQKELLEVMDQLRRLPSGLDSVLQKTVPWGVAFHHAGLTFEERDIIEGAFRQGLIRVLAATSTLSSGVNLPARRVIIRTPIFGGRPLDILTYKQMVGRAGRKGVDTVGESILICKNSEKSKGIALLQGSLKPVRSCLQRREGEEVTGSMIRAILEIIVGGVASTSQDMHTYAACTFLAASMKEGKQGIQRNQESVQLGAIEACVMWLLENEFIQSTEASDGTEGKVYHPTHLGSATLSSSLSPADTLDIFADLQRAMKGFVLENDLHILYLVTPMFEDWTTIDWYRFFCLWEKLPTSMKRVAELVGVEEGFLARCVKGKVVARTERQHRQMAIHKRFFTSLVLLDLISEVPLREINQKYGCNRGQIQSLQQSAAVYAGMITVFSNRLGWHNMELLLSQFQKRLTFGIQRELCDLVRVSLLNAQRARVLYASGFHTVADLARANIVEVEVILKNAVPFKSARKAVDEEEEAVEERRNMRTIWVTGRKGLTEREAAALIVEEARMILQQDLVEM
PolQ ATPase enzyme (1-894), sequence (O75417 1-894): as above
T1 sequence (P08684 whole entry): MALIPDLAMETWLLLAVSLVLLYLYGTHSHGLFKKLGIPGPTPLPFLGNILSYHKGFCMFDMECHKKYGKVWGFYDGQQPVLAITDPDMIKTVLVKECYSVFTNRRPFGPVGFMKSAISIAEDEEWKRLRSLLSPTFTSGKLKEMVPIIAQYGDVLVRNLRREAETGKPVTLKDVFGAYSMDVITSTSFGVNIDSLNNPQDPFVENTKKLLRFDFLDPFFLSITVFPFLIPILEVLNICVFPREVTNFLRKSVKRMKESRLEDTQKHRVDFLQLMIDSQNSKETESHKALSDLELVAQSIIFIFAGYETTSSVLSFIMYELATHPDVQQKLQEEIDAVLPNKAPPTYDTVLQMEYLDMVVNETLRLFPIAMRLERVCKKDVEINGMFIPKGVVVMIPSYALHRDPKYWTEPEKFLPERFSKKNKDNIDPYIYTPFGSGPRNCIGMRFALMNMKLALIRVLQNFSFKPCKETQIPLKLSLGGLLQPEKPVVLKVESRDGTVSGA

SMILES | pIC50 [1] | microsomal CLint at 1 μM [2] [µL/min/mg] | Time-dependent CYP3A4 inhibition-shift after 30 min with NADPH [3] [x] | fold induction at 24 h [4] | PXR activation (% Max activity) [4] [%] | IC50 [5] [nM] | IC50 [6] [nM]
COc1ccc(F)cc1-c1cnccc1C(=O)Nc1nnc(OCc2ccc(C#N)cc2)s1 | 6.63 | 174 | 1 | 3.9 | 17 |  | 
COc1ccccc1-c1cnccc1C(=O)Nc1nnc(OCc2ccc(Cl)cc2)s1 | 5.93 | 262 | >6.5 | 8.8 | 46.0 |  | 
COc1ccccc1-c1cnccc1C(=O)Nc1nnc(OCc2ccc(C#N)cc2)s1 | 6.35 | 234 | 3.6 | 7.9 | 36.0 |  | 
C=C(C1=CN=CCC1C(=O)Nc1nnc(CCC2CC2)s1)/C(=C\N=C\Cl)OC (stereo not shown) | < 4.52 | < 7.7 | 1 | 1.8 | 5.0 |  | 
COc1ccc(F)cc1-c1cn(C)c(=O)cc1C(=O)Nc1nnc(C#Cc2cc(C)[nH]n2)s1 [Compound 17] |  |  |  |  |  | 5.4 | 3.2

Second part, the compound after the results:

pIC50 [1] | microsomal CLint at 1 μM [2] [µL/min/mg] | Time-dependent CYP3A4 inhibition-shift after 30 min with NADPH [3] [x] | fold induction at 24 h [4] | PXR activation (% Max activity) [4] [%] | IC50 [5] [nM] | IC50 [6] [nM] | SMILES
 |  |  |  |  | < 1.5 | 0.78 | COc1ccc(C(F)(F)F)cc1-c1cnccc1C(=O)Nc1nnc(C#CC2CC2)s1 [Compound 24]
 |  |  |  |  | 1.5 | 1.3 | COc1cnc(Cl)cc1-c1cnccc1C(=O)Nc1nnc(C#CC2CC2)s1 [Compound 25]
 |  |  |  |  | 2.6 | 0.53 | COc1cnc(Cl)cc1-c1cnccc1C(=O)Nc1nnc([C@@H]2C[C@H]2c2ccc(C#N)cc2)s1 [Compound 26, 2′-chloro-N-(5-((1R,2R)-2-(4-cyanophenyl)cyclopropyl)-1,3,4-thiadiazol-2-yl)-5′-methoxy-[3,4′-bipyridine]-4-carboxamide]
5.71 | 22.5 | 1 | 1.5 | 3.0 |  | 7.6 | COc1ccccc1-c1cnccc1C(=O)Nc1nnc(C#Cc2ccc(Cl)cc2)s1 [Compound 474]

From US20250026748A1, “N-(5-SUBSTITUTED-[(1,3,4-THIADIAZOLYL) OR (THIAZOLYL)])(SUBSTITUTED)CARBOXAMIDE COMPOUNDS AND USE THEREOF FOR INHIBITING HUMAN POLYMERASE THETA” (Repare Therapeutics Inc., priority 2021, published 2025)
